Assay [1] concerns busulfan antibodies (antisera of example 7). As to the kind of experiment: Indirect competitive microtiter plate immunoassay (ELISA), busulfan derivative 11-BSA sensitized plates. It counts as binding, mouse. Conditions: antibodies to Busulfan-KLH (example 7); plate coating Busulfan-BSA conjugate example 6, derivative 11; ratio of IC50 busulfan to IC50 analyte. On the procedure:
(§1) Ten Female BALB/c mice were immunized i.p. with 100 μg/mouse of Busulfan-BTG immunogen prepared in example 3 or with Busulfan-KLH immunogen prepared in example 4, emulsified in Complete Freund's Adjuvant. Mice were boosted once four weeks after the initial injection with 100 μg/mouse of the same immunogens emulsified in Incomplete Freund's Adjuvant. Ten or 28 days after the boost test bleeds from each mouse were obtained by orbital bleed. The anti-serum from these test bleeds contained Busulfan antibodies evaluated in Examples 9 , 10a and 10b.
(§2) The ELISA method for measuring busulfan concentrations was performed in polystyrene microtiter plates (Nunc MaxiSorp C8 or F8 Immunomodules) optimized for protein binding and containing 96 wells per plate. Each well was coated with busulfan-BSA conjugate (prepared as in example 6) by adding 300 μL of busulfan-BSA conjugate at 2.5 μg/mL in 7.5 μg/mL BSA, 0.05M sodium bicarbonate, pH=9.6, and incubating for three hours at room temperature. The wells were washed with 0.05M sodium bicarbonate, pH 9.6 and then were blocked with 400 μL of 5% sucrose, 0.2% sodium caseinate solution for 30 minutes at room temperature. After removal of the post-coat solution the plates were dried at 37° C. overnight.
(§3) The ELISA method for screening busulfan antibodies (produced in example 7) was performed with the microtiter plates that were sensitized with busulfan-BSA as described in examples 8a and 8b. The antibody screening assay was performed by diluting the antisera containing busulfan antibodies (of example 7) to 1:100, 1:1,000, 1:10,000 and 1:100,000 in phosphate buffered saline containing 0.1% BSA and 0.01% thimerosal. To each well of busulfan-BSA sensitized wells (prepared in examples 8a and 8b) 100 μL of diluted antibody was added and incubated for 10 minutes at room temperature with shaking. During this incubation antibody binds to the busulfan-conjugate in the well. […] Following the incubation for color development, 50 μL of stop solution (1.5% sodium fluoride in di H2O) was added to each well to stop the color development and after 10 seconds of shaking the absorbance was determined at 650 nm (Molecular Devices Plate Reader). The amount of antibody in a well was proportional to the absorbance measured and was expressed as the dilution (titer) resulting in an absorbance of 1.5. Titers were determined by graphing Log antibody dilution of the antibody measured (x-axis) vs. absorbance 650 nm (y-axis) and extrapolating the titer at an absorbance of 1.5. The titer determined the concentration (dilution) of antibody used in the indirect competitive Microtiter plate assay described in examples 10a and 10b. […]

Assay [2] shares this test system. As to the kind of experiment: Indirect competitive microtiter plate immunoassay (ELISA), busulfan derivative 7-BSA sensitized plates. Conditions: antibodies to Busulfan-KLH (example 7); plate coating Busulfan-BSA conjugate example 5, derivative 7; ratio of IC50 busulfan to IC50 analyte. It counts as binding, mouse. On the procedure:
as §1
as §2, with “5)” for “6)”, “10” for “2.5”, “in” for “in 7.5 μg/mL BSA,”
as §3, with “well. The wells of the plates were washed three times with 0.02 M TRIS, 0.9% NaCl, 0.5% Tween-80 and 0.001% Thimerosal, pH 7.8 to remove any unbound antibody.” for “well.”

For `CS(=O)(=O)OCCCCOS(C)(=O)=O` [Busulfan], the “Cross-Reactivity of Competitive Immunoassay” value (“Cross-Reactivity” for short) in assay [1] and in assay [2] was 100% throughout.
Take `O=S1(=O)CCC(O)C1` (centres unmarked) [Tetrahydrothiophene-3-ol-1,1-dioxide, tetrahydrothiophene-3-ol-1,1-dioxide]: the “Cross-Reactivity” value in assay [1] is recorded as less than 0.24%; in assay [2] it was less than 0.4%.
In the case of `C1CCSC1` [Tetrahydrothiophene, tetrahydrothiophene], the “Cross-Reactivity” value is given as less than 0.24% in assay [1] and less than 0.4% in assay [2].
For `O=S1(=O)CCCC1` [Tetramethylene sulfone, tetramethylene sulfone], in that order: less than 0.24% and less than 0.4%.
